Assay [1] addresses Prothrombin (Homo sapiens, UniProt P00734). Nature of the assay: Evaluated for inhibition against thrombin.
Assay [2] deals with Serine protease 1 (Homo sapiens) (UniProt P07477). In words: The inhibitor specificity constant ki/Ki was evaluated for the compound against trypsin.
Assay [3] deals with Coagulation factor X (Homo sapiens) (UniProt P00742). Nature of the assay: Inhibitor specificity constant ki/Ki was evaluated for the compound against Factor Xa.
Assay [4] addresses Tryptase (Homo sapiens) (UniProt Q9BZJ3+Q15661+Q9NRR2). Nature of the assay: Inhibitor specificity constant ki/Ki was evaluated for the compound against tryptase; NI means No inhibition. The class given is protein assay.

The source made the active and inactive calls. The calls are words filed in the database; no cut-off is given here.

Sequence of Serine protease 1 (Homo sapiens) (P07477 whole entry): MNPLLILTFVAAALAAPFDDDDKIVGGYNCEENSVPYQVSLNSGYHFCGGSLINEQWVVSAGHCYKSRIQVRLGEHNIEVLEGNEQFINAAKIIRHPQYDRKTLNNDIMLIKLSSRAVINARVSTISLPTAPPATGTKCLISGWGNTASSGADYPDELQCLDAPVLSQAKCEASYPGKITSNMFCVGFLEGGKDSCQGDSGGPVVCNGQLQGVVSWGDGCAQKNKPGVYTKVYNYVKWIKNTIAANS
Sequence of Coagulation factor X (Homo sapiens) (P00742 41-179 limits assumed): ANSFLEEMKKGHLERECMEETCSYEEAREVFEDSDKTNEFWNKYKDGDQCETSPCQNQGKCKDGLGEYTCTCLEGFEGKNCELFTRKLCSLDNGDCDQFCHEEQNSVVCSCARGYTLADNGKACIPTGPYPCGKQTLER
Sequence of Coagulation factor X (Homo sapiens) (P00742 235-488 limits assumed): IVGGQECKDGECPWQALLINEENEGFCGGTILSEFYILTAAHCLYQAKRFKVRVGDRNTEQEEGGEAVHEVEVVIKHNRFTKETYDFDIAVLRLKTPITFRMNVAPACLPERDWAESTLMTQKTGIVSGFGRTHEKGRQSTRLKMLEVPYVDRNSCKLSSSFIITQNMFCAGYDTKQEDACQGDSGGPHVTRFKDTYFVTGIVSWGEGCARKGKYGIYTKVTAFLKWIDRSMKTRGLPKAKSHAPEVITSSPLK

Turning to `COc1ccc(C(=O)OC[C@H](CCCN=C(N)N)NC(=O)[C@@H]2CCCN2C(=O)[C@@H](Cc2ccccc2)NC(=O)OC(C)(C)C)cc1`, in assay [1], the affinity, expressed as Ki, was 14 µM. The same molecule gave a ki/Ki in assay [2] of 0.0417 M⁻¹ s⁻¹.
For `CC[C@H](C)[C@H](NC(=O)OC(C)(C)C)C(=O)N[C@@H](CCC(=O)O)C(=O)NCC(=O)N[C@@H](CCCN=C(N)N)COC(=O)c1ccc(OC)cc1`, in assay [3], the ki/Ki worked out at 0.075 M⁻¹ s⁻¹.
With `COc1ccc(C(=O)OC[C@H](CCCN=C(N)N)NC(=O)[C@H](CCC(N)=O)NC(=O)[C@H](CCCN=C(N)N)NC(C)=O)cc1`, in assay [4], the ki/Ki entry was “inactive”.
